Patent publication US20240299321A1, “METHODS TO SENSITIZE CANCER CELLS AND STANDARDIZED SCREENING ASSAY FOR IMMUNOTHERAPY” (THE TRUSTEES OF INDIANA UNIVERSITY, priority 2020, published 2024)

Key:
[1] = tested on: EO771 (Luc+OVA+) tumor organoids; assay: Intra-tumor infiltration of T cells in tumor organoids; format: cell-based, mouse; conditions: 48 h treatment, then co-culture with OT-I T cells
Description: To evaluate intra-tumor infiltration of T cells, EO771 (Luc+OVA+) tumor organoids were treated with indicated drugs for 48 h, and then co-cultured with OT-I T cells. After co-culture for 48 h, the organoids with T cells inside or attached were dissociated by TrypLE Express (Thermo Fisher) into single cells and stained with APC/Cy7-conjugated anti-mouse CD8 (Biolegend) and SYTOX Blue reagent for 15 min. The CD8+ T cell proportions from tumor organoids were analyzed by flow cytometry.

[2] = tested on: EO771 tumors; assay: EO771 orthotopic breast tumor model in immunocompetent C57BL/6 mice; format: in vivo; conditions: 20 mg kg-1 intraperitoneal, 3 times/week for 2 weeks
Description: T cell effector function analysis: We measured cytokine and cytolytic granule production (IFNγ, GZMB and TNFα) of CD8+ T cells from mouse tumor samples and tumor organoid-T cell co-culture. Briefly, CD8+ T cells were placed into the 24-well plate at 1×10^6 cells/well, stimulated with 1 μM ionomycin and 50 ng ml-1 phorbol 12-myristate 13-acetate (PMA) (Sigma-Aldrich) for 4 h, in the presence of 5 μg ml-1 Brefeldin A (BFA), with the purpose to amplify the expression of intracellular cytokines61. The cells were stained with APC/Cy7-conjugated anti-CD8a (Biolegend) for 15 min and then fixed by 4% PFA. After washing, cells were stained with PerCP/Cy7-conjugated anti-GZMB, APC-conjugated anti-IFNγ and PE-conjugated anti-TNFα (Biolegend) for 15 min. In flow cytometric analyses, T cells stained with isotype control antibodies were used as negative controls for gating the cytokine or granule-producing cells. For T cells from tumor organoid-T cell co-culture, tumor organoids were first digested into single cells with TrypLE Express at 37° C. before APC/Cy7-conjugated anti-CD8a staining. In the IFNγ and TNFα secretion assay (Biolegend), T cells were stimulated with ionomycin and PMA without the presence of BFA. The media were collected for ELISA assay.
Immunohistochemistry (IHC) and Immunofluorescence (IF) analysis of tumor organoids: Tumor organoids were gently centrifuged at 100 rcf from organoid culture medium and then embedded in 2% agar. Tumor organoids were fixed in 4% paraformaldehyde solution for overnight at room temperature. The samples were replaced with 70% ethanol and later embedded in paraffin blocks. Paraffin sections were cut at 5 μm thickness, attached on slides, heated at 60° C. for 1 h and then overnight at 37° C. The slides were stained with hematoxylin and eosin (H&E). IHC staining follows the protocol described62. Mouse-specific antibodies for CD8α (Cell Signaling Technology, clone D4W2Z, 1:400 dilution), cleaved caspase3 (Cell Signaling Technology, clone D175, 1:400 dilution) and Ki67 (Cell Signaling Technology, clone D3B5, 1:400 dilution) were used for IHC staining. The DAB peroxidase substrate kit (Vector laboratories Inc.) was used to visualize the antibodies. For IF analysis, the sample slides were blocked 3% BSA for 40 min after hydration. The slides were stained with primary antibodies including EpCAM (Abcam, 1:400 dilution), FITC-conjugated anti-α-SMA (Genetex, 1:400 dilution) and AF594-conjugated anti-CD31 (Biolegend) for 1 h. For EpCAM staining, the slide was further stained with secondary antibody Alexa Fluor 647-conjugated anti-rabbit IgG (Biolegend, 1:200) for 40 min. The fluorescence images were captured under a Leica DM4B microscope.
Animal studies: All animal experiments were performed in accordance with the National Institutes of Health's Animal Use Guidelines and protocols approved by the Animal Care and Use Committee of Indiana University School of Medicine. To examine the tumorigenic potential of tumor organoids, tumor organoids with different sizes (diameter of 30-70, 70-150, and 150-500 μm) were orthotopically injected into fat pad of the 4th mammary gland in female C57BL/6 mice. Each mouse was injected with a total of 2×10^5 tumor cells. 5 mice were used in each group. Tumors were measured in two dimensions using a manual caliper. Tumor volume was calculated using the following formula: V=0.5×length×width×width. Tumor volume was measured every 3 days. Tumors were harvested 22 days after injection. The tumor growth, volume and weight were analyzed. To evaluate the anti-tumor effect of drugs in immunocompetent C57BL/6 mice and immunodeficient nude (NU/J) mice, 2×10^5 EO771 cells were orthotopically injected into fat pad of the 4th mammary gland in female mice. […]

COc1ccccc1S(=O)(=O)Nc1ccc2c(c1)CN(C)C(=O)N2 [PFI-1]
CD8+ T cell infiltration in the tumor organoids [1]: poor T cell infiltration
anti-tumor effect in animal experiments [2]: no anti-tumor effect
